Values quoted from earlier work in patent US20050065087A1, “Pharmaceutical compositions and methods comprising combinations of 2-alkylidene-19-nor-vitamin D derivatives and a bone morphogenetic protein” (Pfizer Inc., priority 2003, published 2005).

Experiments:
[1] = system: male weanling rats on vitamin D-deficient diet; details: for bone calcium mobilization (in words): chronic 7 days, 130 and 260 pmol/day
[2] = system: male weanling rats on vitamin D-deficient diet; details: chronic 7 days, 130 and/or 260 pmol/day as tested
[3] = system: HL-60 cells; details: method of Ostrem et al.

Structure (SMILES) | serum calcium value (text sentence) ([1]; 'twice the dose ... at the 130 pmol dose' as printed, 7 days) | intestinal calcium transport (in words) [2] | bone calcium mobilization (in words) [1] | inducing differentiation of HL-60 cells to the monocyte (in words) [3] | bone calcium mobilization activity relative to the native hormone, 'possible' upper estimate ([1]; 130 pmol/day, chronic mode 7 days) | bone calcium mobilization activity relative to 1,25-(OH)2D3 (native hormone) ([1]; chronic mode 7 days, estimate in the text)
C=C1/C(=C\C=C2/CCC[C@]3(C)[C@@H]([C@H](C)CCCC(C)(C)O)CC[C@@H]23)C[C@@H](O)C[C@@H]1O [1,25-(OH)2D3, 1,25-dihydroxyvitamin D3, reference compound] | 13.8 mg/100 ml | expected elevation | – | – | – | –
C=C1[C@H](O)CC(=C/C=C2\CCC[C@]3(C)[C@@H]([C@H](C)CCCC(C)(C)O)CC[C@@H]23)C[C@H]1O [2-Methylene-19-Nor-1,25-(OH)2D3, 1α,25-dihydroxy-2-methylene-19-nor-vitamin D3] | – | no intestinal calcium transport activity | extremely strong bone calcium mobilization | activity similar to 1,25-(OH)2D3 | – | –
C=C1[C@H](O)CC(=C/C=C2\CCC[C@]3(C)[C@@H]([C@@H](C)CCCC(C)(C)O)CC[C@@H]23)C[C@H]1O [2-Methylene-19-Nor-20S-1,25-(OH)2D3, (20S)-1α,25-dihydroxy-2-methylene-19-nor-vitamin D3] | – | no significant change | most potent compound tested | extremely potent | 100-1,000 times | at least 10 times
